Test results as given in patent publication US5445941A, “Method for screening anti-osteoporosis agents” (Eli Lilly and Company, priority 1993, dated 1995).

Tests used:
TGFβ-3 promoter [1] = assay: Reporter induction, pB-301 (TGFβ-3 promoter) and pRSVER in MG63 cells; format: cell-based, human; details: control 0.7
Experimental: These assays were performed essentially as in Example V.
Transfected cells were treated with varying amounts and combinations of hormones and then rinsed twice with D-PBS. Cells were then lysed upon incubation with 250 μL of eukaryotic cell lysis reagent (as described in Example VI) at 4° C. for 20 min and transferred to microcentrifuge tubes by scraping with a rubber policeman. Cell lysates were centrifuged at 14,000 rpm for 1 minute to remove cell debris. Cell extracts (supernatant) were then assayed for protein content and luciferase activities.
Luciferase assays were performed as follows. 50 μL of each cell extract was added to 100 μL of reagent A buffer (containing 4.0 mM ATP/15 mM MgSO4 / 30 mM tricine buffer (pH 7.8)/ 10 mM DTT) in individual wells of a microtiter plate. 100 μL of 1 mM D(-)-luciferin (in 0.1M KPO4 (pH 7.8); Boehringer Mannheim) were added to each well and the amount of light produced measured by using a ML3000 microtiter plate luminometer (under conditions of integrate flash mode, high gain, integrate window=10 seconds, at a temperature of 22° C.). Luciferase activities were calculated as total light output relative to protein content in each cell lysate sample.

TGFβ-3 promoter [2] = assay: Dose response of TGFβ-3 promoter (pB-301) CAT induction in MG63 cells with pRSVER; details: for CAT activity: vehicle 0.85
Experimental: For each group of twelve cultures, the particular estrogen or antiestrogen compound was tested in replicate cultures at […], varying in tenfold increments from 10^-9 M to 10^-5 M, as well as one set of replicate cultures treated with vehicle only (for a total of twelve cultures per experimental treatment). Hormones were dissolved in ethanol and applied to the cultures in media as described above. The four estrogens and antiestrogens tested were:
a. 17β-estradiol (Sigma Chemical Corp., St. Louis, Mo.);

[3] = animal models and humans; cited from earlier work
TGFβ-1 promoter = assay: CAT reporter expression, TGFβ-1 promoter (phTG12), MG63 cells cotransfected with pRSVER
Experimental: Co-transfection experiments were performed in MG63 (human osteosarcoma) cells, using the ProFection Mammalian Transfection System (Promega). […] The cells were then refed with fresh 3:1 media containing 10% csFBS. Compounds to be evaluated for their ability to modulate reporter gene expression were added at the appropriate times and assayed as described below.
Cultures of MG63 cells were transiently co-transfected with pRSVER plasmid and either phTG12, pTGF-1, or pB2-499 using the ProFection system (Promega). For each transfected cell culture, DNA-containing calcium phosphate precipitates were added dropwise to each culture dish and mixed thoroughly in the media. The pH of the media was carefully maintained between pH 7.2 and pH 7.4. Transfected cell cultures were then incubated overnight in a 5% CO2 atmosphere at 37° C. For all cultures, the precipitate was removed after overnight incubation by aspirating the media from the culture dishes, followed by rinsing each dish twice with D-PBS. For each cotransfected cell line, the buffer was replaced with 10 ml fresh medium containing 10% csFBS and one of the following compositions:
a. 10 μl ethanol (hormone vehicle)=control;
b. 10 μl 17β-estradiol (Sigma) ("estradiol") at a concentration of 10^-4 M in ethanol;
d. 10 μl Tamoxifen (Sigma) at a concentration of 10^-4 M in ethanol.
After 24 h incubation with these hormonal preparations (or the vehicle control), cells were washed twice with D-PBS. The cells were then scraped from the culture dishes using a rubber policeman and 1 ml of D-PBS. Cells were collected by centrifugation at 8,000 rpm for 2 minutes in a tabletop centrifuge (MicroMax Model, IEC, Newark, N.Y.). The supernatant was removed and the cell pellets were resuspended in 150 μL of a 0.25M Tris-HCl solution (pH 7.8). Cells were lysed by three cycles of freezing in a dry ice/ethanol bath and thawing in a water bath at 37° C. water bath (for 3 minutes each cycle). Lysed cell preparations were centrifuged at 15,000 rpm for 5 minutes at 4° C. to remove cell debris. Supernatants containing the soluble cell lysate were transferred to a new set of tubes for assaying chloramphenicol acetyltransferase (CAT) activity.
Before performing CAT assays on such cell lysates, the protein content of each lysate was first determined using a commercially-available assay (BioRad Laboratories, Richmond, Calif.). An amount of each cell lysate containing 100 μg total protein was then mixed with CAT assay buffer (0.4M Tris-HCl (pH 7.8)/ 0.5 mM acetyl-CoA (Boehringer Mannheim)/ 0.1 μCi D-threo-(dichloroacetyl-1,2-[^14 C]-chloramphenicol) for 15 hours. After this incubation, reactions were stopped by vigorously extracting the reaction mixture with 900 μL ethyl acetate. The organic and aqueous phases were separated by brief centrifugation at 14,000 rpm for 1 minute, and approximately 800 μL of the organic phase was transferred to a new set of tubes. Ethyl acetate was evaporated to concentrate the CAT-catalyzed reaction products.
Acetylated and unacetylated chloramphenicol species were resolved by thin layer chromatography using a mixture of 95:5 (v/v) chloroform:methanol as the ascending buffer.

In the case of `C[C@]12CC[C@@H]3c4ccc(O)cc4CC[C@H]3[C@@H]1CC[C@@H]2O` [estradiol, 17β-estradiol], the “reporter gene expression, pB-301” value (TGFβ-3 promoter [1]; 10^-5 M) is reported as 8.0, the “reporter gene expression, pB-301” value (TGFβ-3 promoter [1]; 10^-6 M) is reported as 5.2 and the “reporter gene expression, pB-301” value (TGFβ-3 promoter [1]; 10^-7 M) is reported as 5.5. The “reporter gene expression, pB-301” value (TGFβ-3 promoter [1]; 10^-8 M) was 3.2, the “reporter gene expression, pB-301” value (TGFβ-3 promoter [1]; 10^-9 M) was 1.1 and the CAT activity (TGFβ-3 promoter [2]; 10^-5 M, 24 h) was 3.4. For the same compound, the CAT activity (TGFβ-3 promoter [2]; 10^-6 M, 24 h) was 4.3, the CAT activity (TGFβ-3 promoter [2]; 10^-7 M, 24 h) was 1.6 and the CAT activity (TGFβ-3 promoter [2]; 10^-8 M, 24 h) was 1.1. The CAT activity (TGFβ-3 promoter [2]; 10^-9 M, 24 h) was 0.96, the “ED50 (in words)” value (TGFβ-3 promoter [2]; MG63 cells) was “two orders of magnitude higher than that of raloxifene” and the “TGFβ-3 promoter activation (in words)” value (TGFβ-3 promoter [2]; MG63 cells) was “least potent inducer”. For the same compound, the “induction of reporter gene transcription/expression” value (TGFβ-3 promoter [2]; mg63 cells, 24 h) was 4 fold, the “serum lipid lowering effect (in words)” value [3] was “serum lipid lowering effect” and the fold induction at 0.1 µM (TGFβ-1 promoter; Homo sapiens, MG-63, 24 h, read-out: Fold Ind.) was 0.7. The “Act. (relative CAT activity)” value (TGFβ-1 promoter; TGFβ-1 promoter, 10 μl of 10^-4 M in 10 ml medium, 24 h, control […]) was 4.7 and the “response of the TGFβ-1 promoter region (in words)” value (TGFβ-1 promoter; positions -1032 to +727) was “no response”.
